Laboratory results: ChEMBL document CHEMBL1133384, “Synthesis and study of a new adenine-acridine tandem, inhibitor of exonuclease III” (Bioorg Med Chem Lett, 2000)

Columns and labels:
Nucleic Acid = test: Compound was evaluated for its binding affinity constant for native calf thymus DNA in competition experiment with ethium bromide; assay type: nucleic-acid assay, Bos taurus
L1210 = test: The cytotoxicity against murine leukemia L1210; assay type: functional, cell-based; conditions: Mus musculus

## COc1ccc2nc3cc(Cl)ccc3c(NCCCN(CCC(=O)NCCn3cnc4c(N)ncnc43)C(=N)N)c2c1.Cl
Nucleic Acid
  Ka: 200000 M⁻¹
L1210
  IC50: > 100 µM
